Results published in patent US8835422B2, “Substituted imidazoheterocycle derivatives” (Cara Therapeutics, Inc., priority 2008, dated 2014).

Key:
Assay type in all cases: cell-based
[1] = target: human CB1 receptor (hCB1) (Homo sapiens, UniProt P21554); assay: cAMP assay (LANCE TR-FRET) in CHO-K1 cells stably expressing hCB1
Experimental: (§1) The ability of compounds to act as agonists or inverse agonists at human CB2 and CB1 receptors (hCB2, hCB1, respectively) and at the rat CB2 receptor (rCB2) was determined by measuring changes in intracellular cAMP levels. Chinese Hamster Ovary (CHO-K1) cell lines stably expressing hCB2 (Genebank: X74328) or hCB1 (Genebank: X54937) were purchased from Euroscreen (Gosselies, Belgium). The rat CB2 receptor was expressed from genomic DNA (provided by M. Abood, California Pacific Medical Center) in CHO-K1 cells from expression plasmid vector, pcDNA3.1.
(§2) Receptor mediated responses were determined by measuring changes in intracellular cAMP using LANCE cAMP detection kit (cat #AD0264, Perkin Elmer, Wellesley, Mass.) based on time-resolved fluorescence resonance energy transfer (TR-FRET).
(§3) On the day of the experiment, cells were spun at low speed for 5 min at room temperature. […] Cell clumps were removed by filtering through cell strainer 40 μm (BD Falcon, Discovery Labware, Bedford, Mass.) and diluted to 2×10^5 cells/mL. Antibody supplied with the LANCE cAMP immunoassay kit was then added according to the manufacturer's instructions. An aliquot of cells was taken for un-induced controls. […] Cells were then incubated for 30 min at room temperature prior to adding to Proxiplates containing test compounds (final DMSO concentration was less than 0.5%) with a Multidrop bulk dispenser, followed by a sixty minute incubation at room temperature. The response was stopped by addition of the detection mix supplied with the LANCE kit. The reagents were allowed to equilibrate for three hours prior to reading on an Envision multi-mode detector (Perkin-Elmer). TR-FRET was measured using a 330-380 nm excitation filter, a 665 nm emission filter, dichroic mirror 380 nm and Z=1 mm. Cyclic AMP concentrations in each well were back-calculated from a cAMP standard curve run concurrently during each assay. Each plate contained 16 wells of forskolin stimulated cells and 16 wells of forskolin plus CP55,940-treated cells. […] Concentrations of cAMP were expressed as a percent of the difference of these two groups of wells.

[2] = target: T1, human CB2 receptor (hCB2) (Homo sapiens, UniProt P34972); assay: cAMP assay (LANCE TR-FRET) in CHO-K1 cells stably expressing hCB2
T1 construct: host or cells: CHO-K1
T1 sequence (P34972 whole entry): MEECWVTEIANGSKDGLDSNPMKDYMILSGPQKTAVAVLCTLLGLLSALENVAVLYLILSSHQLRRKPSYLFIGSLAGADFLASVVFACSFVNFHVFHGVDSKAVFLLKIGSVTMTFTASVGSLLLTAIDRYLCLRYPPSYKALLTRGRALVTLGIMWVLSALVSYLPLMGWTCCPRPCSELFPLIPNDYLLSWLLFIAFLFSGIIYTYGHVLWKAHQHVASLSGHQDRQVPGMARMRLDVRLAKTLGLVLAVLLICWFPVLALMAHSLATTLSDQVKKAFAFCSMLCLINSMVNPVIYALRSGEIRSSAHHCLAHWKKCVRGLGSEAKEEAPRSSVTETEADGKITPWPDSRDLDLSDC
Experimental: as §1, §2, §3

rat CB2 receptor (rCB2) = target: T2, rat CB2 receptor (rCB2) (Rattus norvegicus, UniProt Q9QZN9); assay: cAMP assay (LANCE TR-FRET) in CHO-K1 cells expressing rat CB2
T2 construct: expressed in transfected cells; host or cells: CHO-K1 (plasmid pcDNA3.1)
T2 sequence (Q9QZN9 1-360): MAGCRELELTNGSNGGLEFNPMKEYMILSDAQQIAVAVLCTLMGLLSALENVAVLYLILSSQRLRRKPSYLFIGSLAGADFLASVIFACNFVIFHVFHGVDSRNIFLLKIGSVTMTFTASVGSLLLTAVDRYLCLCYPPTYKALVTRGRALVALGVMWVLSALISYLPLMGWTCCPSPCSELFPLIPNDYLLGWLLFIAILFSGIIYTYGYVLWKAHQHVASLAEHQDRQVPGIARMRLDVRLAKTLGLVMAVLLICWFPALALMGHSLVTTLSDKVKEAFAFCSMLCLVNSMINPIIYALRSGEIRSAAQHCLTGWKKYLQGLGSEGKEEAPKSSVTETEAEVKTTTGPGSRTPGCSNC
Experimental: as §1, §2, §3

human CB1 receptor (hCB1), sequence (P21554 whole entry): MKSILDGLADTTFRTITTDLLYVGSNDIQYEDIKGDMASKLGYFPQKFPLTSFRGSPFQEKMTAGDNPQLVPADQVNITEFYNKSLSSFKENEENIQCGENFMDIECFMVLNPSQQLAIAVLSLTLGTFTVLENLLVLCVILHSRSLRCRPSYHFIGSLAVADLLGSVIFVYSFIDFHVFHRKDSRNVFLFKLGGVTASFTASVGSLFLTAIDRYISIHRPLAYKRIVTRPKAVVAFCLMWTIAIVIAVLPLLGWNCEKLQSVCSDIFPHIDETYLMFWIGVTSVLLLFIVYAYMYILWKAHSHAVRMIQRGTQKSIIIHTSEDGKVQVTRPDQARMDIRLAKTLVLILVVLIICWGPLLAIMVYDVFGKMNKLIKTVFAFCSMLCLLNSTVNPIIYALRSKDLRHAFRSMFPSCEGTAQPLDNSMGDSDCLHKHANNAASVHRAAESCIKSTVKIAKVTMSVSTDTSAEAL

Compound | EC50 [1] | EC50 [2] | EC50 (rat CB2 receptor (rCB2))
CCN1Cc2c(C(=O)N[C@H](C(=O)NC)C(C)(C)C)nc(-c3ccc(F)c(F)c3)n2CC(C)C1 (mixture of isomers) [Compound 2-3, (S)-3-(3,4-difluorophenyl)-N-(3,3-dimethyl-1-(methylamino)-1-oxobutan-2-yl)-8-ethyl-6-methyl-6,7,8,9-tetrahydro-5H-imidazo[1,5-a][1,4]diazepine-1-carboxamide] | 10 to 100 nM | 10 to 100 nM | 
CNC(=O)[C@@H](NC(=O)c1nc(-c2ccc(F)c(F)c2)n2c1CN(C)C(C)CC2)C(C)(C)C (single isomer, unassigned) [Compound 2-4] |  | 10 to 100 nM | 
CC(C)(C)[C@H](NC(=O)c1nc(-c2ccccc2)n2c1CCCCC2)C(=O)N1CCC1 [Compound 1-4, (S)—N-(1-(azetidin-1-yl)-3,3-dimethyl-1-oxobutan-2-yl)-3-phenyl-6,7,8,9-tetrahydro-5H-imidazo[1,5-a]azepine-1-carboxamide] | 10 to 100 nM | 0.1 to 10 nM | 
CC(C)(C)[C@H](NC(=O)c1nc(-c2cc(F)ccc2F)n2c1CCCCC2)C(=O)N1CCC1 [Compound 1-5, (S)—N-(1-(azetidin-1-yl)-3,3-dimethyl-1-oxobutan-2-yl)-3-(2,5-difluorophenyl)-6,7,8,9-tetrahydro-5H-imidazo[1,5-a]azepine-1-carboxamide] | 0.1 to 10 nM | 0.1 to 10 nM | 
CC(C)(C)[C@@H](CO)NC(=O)c1nc(-c2ccc(F)c(F)c2)n2c1CCCCC2 [Compound 1-6, (S)-3-(3,4-difluorophenyl)-N-(1-hydroxy-3,3-dimethylbutan-2-yl)-6,7,8,9-tetrahydro-5H-imidazo[1,5-a]azepine-1-carboxamide] |  | 0.1 to 10 nM | 
CNC(=O)[C@@H](NC(=O)c1nc(-c2ccc(F)c(F)c2)n2c1CCCC2)C(C)(C)C [Compound 1-7, (S)-3-(3,4-difluorophenyl)-N-(3,3-dimethyl-1-(methyl-amino)-1-oxobutan-2-yl)-5,6,7,8-tetrahydroimidazo[1,5-a]pyridine-1-carboxamide] | 0.1 to 10 nM | 0.1 to 10 nM | 
CNC(=O)[C@@H](NC(=O)c1nc(-c2ccccc2)n2c1CCOCC2)C(C)(C)C [Compound 1-8, (S)—N-(3,3-dimethyl-1-(methylamino)-1-oxobutan-2-yl)-3-phenyl-5,6,8,9-tetrahydroimidazo[1,5-d][1,4]oxazepine-1-carboxamide] |  | 10 to 100 nM | 
CC(C)(C)[C@H](NC(=O)c1nc(-c2ccc(F)c(F)c2)n2c1COCCC2)C(=O)NCCO [Compound 1-11, (S)-3-(3,4-difluorophenyl)-N-(1-(2-hydroxyethylamino)-3,3-dimethyl-1-oxobutan-2-yl)-5,6,7,9-tetrahydroimidazo[5,1-c][1,4]oxazepine-1-carboxamide] |  | 10 to 100 nM | 
CNC(=O)[C@@H](NC(=O)c1nc(-c2cc(F)ccc2F)n2c1COCCC2)C(C)(C)C [Compound 1-12, (S)-3-(2,5-difluorophenyl)-N-(3,3-dimethyl-1-(methylamino)-1-oxobutan-2-yl)-5,6,7,9-tetrahydroimidazo[5,1-c][1,4]oxazepine-1-carboxamide] | 0.1 to 10 nM | 0.1 to 10 nM | 
CNC(=O)[C@@H](NC(=O)c1nc(-c2ccc(Cl)cc2F)n2c1COCCC2)C(C)(C)C [Compound 1-13, (S)-3-(4-chloro-2-fluorophenyl)-N-(3,3-dimethyl-1-(methylamino)-1-oxobutan-2-yl)-5,6,7,9-tetrahydroimidazo[5,1-c][1,4]oxazepine-1-carboxamide] | 0.1 to 10 nM | 0.1 to 10 nM | 
CC[C@H](C)[C@H](NC(=O)c1nc(-c2ccc(F)c(F)c2)n2c1CCCCC2)C(N)=O [Compound 1-14, N-((2S,3S)-1-amino-3-methyl-1-oxopentan-2-yl)-3-(3,4-difluorophenyl)-6,7,8,9-tetrahydro-5H-imidazo[1,5-a]azepine-1-carboxamide] | 0.1 to 10 nM | 0.1 to 10 nM | 
O=C(N[C@H]1c2ccccc2C[C@@H]1O)c1nc(-c2ccc(F)c(F)c2)n2c1CCCCC2 [Compound 1-15, 3-(3,4-difluorophenyl)-N-((1S,2S)-2-hydroxy-2,3-dihydro-1H-inden-1-yl)-6,7,8,9-tetrahydro-5H-imidazo[1,5-a]azepine-1-carboxamide] |  | 0.1 to 10 nM | 
O=C(N[C@@H]1c2ccccc2C[C@@H]1O)c1nc(-c2ccc(F)c(F)c2)n2c1CCCCC2 [Compound 1-16, 3-(3,4-difluorophenyl)-N-((1R,2S)-2-hydroxy-2,3-dihydro-1H-inden-1-yl)-6,7,8,9-tetrahydro-5H-imidazo[1,5-a]azepine-1-carboxamide] | 10 to 100 nM | 10 to 100 nM | 
O=C(N[C@@H]1c2ccccc2C[C@H]1O)c1nc(-c2ccc(F)c(F)c2)n2c1CCCCC2 [Compound 1-17, 3-(3,4-difluorophenyl)-N-((1R,2R)-2-hydroxy-2,3-dihydro-1H-inden-1-yl)-6,7,8,9-tetrahydro-5H-imidazo[1,5-a]azepine-1-carboxamide] | 10 to 100 nM | 10 to 100 nM | 
O=C(N[C@H]1c2ccccc2C[C@H]1O)c1nc(-c2ccc(F)c(F)c2)n2c1CCCCC2 [Compound 1-18, 3-(3,4-difluorophenyl)-N-((1S,2R)-2-hydroxy-2,3-dihydro-1H-inden-1-yl)-6,7,8,9-tetrahydro-5H-imidazo[1,5-a]azepine-1-carboxamide] | 10 to 100 nM | 0.1 to 10 nM | 
O=C(NC1CCc2ccccc21)c1nc(-c2ccc(F)c(F)c2)n2c1CCCCC2 (stereo not drawn) [Compound 1-19, 3-(3,4-difluorophenyl)-N-(2,3-dihydro-1H-inden-1-yl)-6,7,8,9-tetrahydro-5H-imidazo[1,5-a]azepine-1-carboxamide] |  | 0.1 to 10 nM | 
O=C(N[C@H]1CCCc2ccccc21)c1nc(-c2ccc(F)c(F)c2)n2c1CCCCC2 [Compound 1-20, (S)-3-(3,4-difluorophenyl)-N-(1,2,3,4-tetrahydronaphthalen-1-yl)-6,7,8,9-tetrahydro-5H-imidazo[1,5-a]azepine-1-carboxamide] |  | 0.1 to 10 nM | 
O=C(N[C@@H]1CCCc2ccccc21)c1nc(-c2ccc(F)c(F)c2)n2c1CCCCC2 [Compound 1-21, (R)-3-(3,4-difluorophenyl)-N-(1,2,3,4-tetrahydronaphthalen-1-yl)-6,7,8,9-tetrahydro-5H-imidazo[1,5-a]azepine-1-carboxamide] |  | 0.1 to 10 nM | 
CC(C)(C)[C@H](NC(=O)c1nc(-c2ccccc2)n2c1CCCCC2)C(=O)NCCF [Compound 1-22, (S)—N-(1-(2-fluoroethylamino)-3,3-dimethyl-1-oxobutan-2-yl)-3-phenyl-6,7,8,9-tetrahydro-5H-imidazo[1,5-a]azepine-1-carboxamide] | 10 to 100 nM | 0.1 to 10 nM | 
COC(=O)[C@@H](NC(=O)c1nc(-c2ccc(F)c(F)c2)n2c1CCCCC2)C(C)(C)C [Compound 1-23, (S)-methyl 2-(3-(3,4-difluorophenyl)-6,7,8,9-tetrahydro-5H-imidazo[1,5-a]azepine-1-carboxamido)-3,3-dimethylbutanoate] | 0.1 to 10 nM | 0.1 to 10 nM | 
COC(=O)[C@@H](NC(=O)c1nc(-c2ccccc2)n2c1CCCCC2)C(C)(C)C [Compound 1-24, (S)-methyl 3,3-dimethyl-2-(3-phenyl-6,7,8,9-tetrahydro-5H-imidazo[1,5-a]azepine-1-carboxamido)butanoate] | 0.1 to 10 nM | 0.1 to 10 nM | 
CNC(=O)[C@@H](NC(=O)c1nc(-c2ccc(F)c(F)c2)n2c1CN(C)CC(C)(C)C2)C(C)(C)C [Compound 2-1, (S)-3-(3,4-difluorophenyl)-N-(3,3-dimethyl-1-(methylamino)-1-oxobutan-2-yl)-6,6,8-trimethyl-6,7,8,9-tetrahydro-5H-imidazo[1,5-a][1,4]diazepine-1-carboxamide] |  | 10 to 100 nM | 
CNC(=O)[C@@H](NC(=O)c1nc(-c2ccccc2)n2c1CCNCC2)C(C)(C)C [Compound 3-8, (S)-N-(3,3-dimethyl-1-(methylamino)-1-oxobutan-2-yl)-3-phenyl-6,7,8,9-tetrahydro-5H-imidazo[1,5-d][1,4]diazepine-1-carboxamide] |  |  | 10 to 100 nM
